Here are results for four compounds from ChEMBL document CHEMBL1152113, “The prooligonucleotide approach. III: Synthesis and bioreversibility of a chimeric phosphorodithioate prooligonucleotide” (Bioorg Med Chem Lett, 1996).

Data set [1] can be described thus: Half life period was reported in total cell extract medium. The data set is classed as ADME.
A short description of data set [2]: Half life period was reported in a culture medium (RPMI 1640 + 10% FCS). The data set is classed as ADME.
Data set [3] is described as follows: Half life period was reported in gastric juice. The format is ADME, tissue-based.
Data set [4] in a line: Half life period was reported in porcine liver esterase medium. The format is ADME, Sus scrofa. The settings on record: pig.
Data set [5] in a line: Half life period was reported in gastric juice, stable; No degradation observed up to 30 days. The data set is classed as ADME, tissue-based. The conditions noted are these: simulated gi fluid, 720 h.
Data set [6] is described as follows: Half life period was reported in gastric juice; stable No degradation observed up to 30 days. The format is ADME, tissue-based. The settings on record: simulated gi fluid, 720 h.

`CCCCCCCCCCCCOC[C@H]1O[C@@H](n2cc(C)c(=O)[nH]c2=O)C[C@@H]1O`: the half-life was 15 min in data set [1] and 32 h in data set [2].

Consider `CC(=O)SCCSP(=S)(OC[C@H]1O[C@@H](n2cc(C)c(=O)[nH]c2=O)C[C@@H]1O)O[C@H]1C[C@H](n2cc(C)c(=O)[nH]c2=O)O[C@@H]1CO` (some centres undefined), for which the half-life was < 5 min in data set [1], 168 h in data set [3], < 2 min in data set [4] and 6 h in data set [2].

With `Cc1cn([C@H]2C[C@H](OP(=S)(OC[C@H]3O[C@@H](n4cc(C)c(=O)[nH]c4=O)C[C@@H]3O)SCCSC(=O)c3ccccc3)[C@@H](CO)O2)c(=O)[nH]c1=O` (some centres undefined), the half-life is 36 min in data set [1], 5 min in data set [4] and 46.5 h in data set [2]. For the same compound, the T1/2 result in data set [5] was “No degradation”.

As to `Cc1cn([C@H]2C[C@H](OP(=S)(OC[C@H]3O[C@@H](n4cc(C)c(=O)[nH]c4=O)C[C@@H]3O)SCCSC(=O)C(C)(C)C)[C@@H](CO)O2)c(=O)[nH]c1=O` (some centres undefined), the results for the half-life in data set [1], in data set [4] and in data set [2] were 54 min, < 4 min and 42.7 h, respectively. Moreover, the T1/2 result in data set [6] is “No degradation”.

One may read the half-life as the time in which the quantity being followed falls by half.
